According to PMC6005845 (Frontiers in Cardiovascular Medicine, 2018):
Where two headings read alike, the source gives them in different places.

Details: for Body weight / Food intake: after 16 weeks; for Food intake: per cage
Text: Female APOE*3Leiden.CETP transgenic mice (9 to 14 weeks of age) from the SPF breeding stock at TNO-Metabolic Health Research (TNO-Leiden) were used in this study. Females were used because they are more responsive to dietary cholesterol and fat than males. APOE*3Leiden females have a higher VLDL production ([20]) than males resulting in higher plasma total cholesterol (TC) and triglyceride (TG) levels and more pronounced development of atherosclerosis ([21, 22]). […] Body weight, food intake and clinical signs of behavior were monitored regularly during the study. Animal experiments were approved by the Institutional Animal Care and Use Committee of The Netherlands Organization for Applied Research under registration number 3557.

Cc1ccc(C(=O)Nc2ccc(CN3CCN(C)CC3)c(C(F)(F)F)c2)cc1C#Cc1cnc2cccnn12 [Ponatinib, ponatinib]
mice that died during blood pressure measurements (3 mg/kg QD, t = 15 weeks): Two
Body weight (3 mg/kg): 22.5 ± 2.3 gram
Food intake (3 mg/kg): 2.4 gram/mouse/day
Body weight (10 mg/kg): 22.3 ± 2.8 gram
Food intake (10 mg/kg): 2.3 gram/mouse/day
